Here are results for 1 compound from patent publication US11938136B2, “Compositions for treating spinal muscular atrophy” (Hoffmann-La Roche Inc., priority 2015, dated 2024).

The test system of one experiment is SMN protein. The experiment can be described thus: SMN protein in spinal motor neurons derived from SMA patient iPSCs (immunostaining). The format is cell-based, human. The procedure:
(§1) (A) SMN2 splicing in SMA Type 1 fibroblasts. (B) SMN protein in SMA Type 1 fibroblasts. (C) SMN protein in SMA Type 1 motor neurons. (D) SMN1 and SMN2 splicing in whole blood derived from HV. Fibroblasts from SMA Type 1 patients were cultured for 24 hours (A) or 48 hours (B); motor neurons from SMA Type 1 patient iPSCs (induced Pluripotent Stem Cells) were cultured for 72 hours (C) and whole blood cells from healthy volunteers (HV) for 4 hours (D) in the presence of the compound of Example 20. SMN splicing was assessed by RT-PCR, and SMN protein levels were assessed by homogenous time-resolved fluorescence (HTRF) in fibroblast lysates, and by immunostaining for SMN in motor neurons. Data represent means standard error (SEM) of 3 evaluations per data point and are expressed as fold change vs. untreated controls.

For a further experiment, the system named is SMN1 splicing. As to the kind of experiment: Ex vivo whole blood assay, SMN1 splicing. To be noted: whole blood cells from healthy volunteers, 4 hours. The format is cell-based, human. The procedure: as §1, with “controls. To further assess SMN2 splicing as a potential blood biomarker, an ex vivo assay was developed using whole blood cells from healthy volunteers in which SMN1 and SMN2 splicing was assessed after 4 hours treatment with the compound of Example 20 (at this time point, maximal splicing changes were achieved).” for “controls.”

Experiment [1] concerns SMNΔ7 mice. The experiment can be described thus: Survival and body weight of SMNΔ7 mice. The format is in vivo, mouse. The procedure:
FIG. 3. in vivo Effects of treatment SMNΔ7 mice with 7-(4,7-diazaspiro[2.5]octan-7-yl)-2-(2,8-dimethylimidazo[1,2-b]pyridazin-6-yl)pyrido[1,2-a]pyrimidin-4-one (Example 20). SMNΔ7 mice were treated with the compound of Example 20 from P3 onwards and animal survival (A) and body weight (B) were assessed daily until P100. Data represent means SEM of 10-12 mice per group. HET=heterozygous littermates.
Functional benefits were assessed in the severe and mild SMA mouse models. SMNΔ7 mice were treated from P3 to P23 once daily by IP injection of vehicle or the compound of Example 20, and from P24 onwards once daily by oral gavage. During the treatment period, body weight and animal survival were monitored. Over the 100-day observation period, only two heterozygous littermates died. In contrast, all vehicle-treated mice died before P21 with a median survival time (MST) of 10.5 days.

For experiment [2], the system named is SMNΔ7 mice. The experiment can be described thus: Neuromuscular connectivity and muscle atrophy in SMNΔ7 mice (immunohistochemistry). The format is in vivo, mouse. The following applies: 0.1, 0.3, 1 mg/kg IP once per day, P3 to P14. The procedure: SMNΔ7 mice were treated with the compound of Example 20 from P3 to P14, and neuromuscular connectivity and muscle atrophy were assessed by immunohistochemistry. (A) vGlut1-positive proprioceptive inputs in L3-5 spinal cord. (B) Ventral motor axons in L3-5 spinal cord. (C) NMJ innervation onto longissimus muscle. (D) EDL muscle cross-sectional area. Data represent means SEM of 4-5 mice per group. *=p<0.05; **=p<0.01; ***=p<0.001 vs. vehicle-treated SMNΔ7 mice.
Lastly, the compound of Example 20 improves neuromuscular connectivity in a severe SMA mouse model in vivo. SMNΔ7 mice were treated from P3 to P14 by IP application of vehicle or 0.1, 0.3, 1 mg/kg Example 20 once per day. At P14, 1 hour after the last dose spinal cord and muscle tissues were processed for histological assessment.

What is called EC50 is the concentration giving half of the maximal effect. In the case of `Cc1cn2nc(-c3cc(=O)n4cc(N5CCNC6(CC6)C5)ccc4n3)cc(C)c2n1` [Example 20, 7-(4,7-diazaspiro[2.5]octan-7-yl)-2-(2,8-dimethylimidazo[1,2-b]pyridazin-6-yl)pyrido[1,2-a]pyrimidin-4-one], the “maximal increase in SMN protein above untreated cells” value in the experiment on SMN protein (motor neurons from SMA patient iPSCs) was 60-80%. For the same compound, it took 182 ± 114 nM to reach a half-maximal effect with SMN protein (spinal motor neurons from SMA patient iPSCs, 72 hours) (EC50). The “effect on SMN1 splicing” value in the experiment with SMN1 splicing is recorded as “largely unaffected”. Also, the “recovery in body weight gain as compared to heterozygous littermates” value was 85% with SMNΔ7 mice [1] (high dose), 71% in the experiment on SMNΔ7 mice [1] (mid dose) and 82% in the experiment with SMNΔ7 mice [1] (mid/high dose). Also, the “animals surviving up to P100” value with SMNΔ7 mice [1] (high dose: 3 mg/kg IP through P23 and 10 mg/kg PO thereafter) is reported as 73%; in the experiment with SMNΔ7 mice [1] (mid dose: 0.3 mg/kg IP through P23 and 1 mg/kg PO thereafter), 80%; in the experiment with SMNΔ7 mice [1] (mid/high dose: 1 mg/kg IP through P23 and 3 mg/kg PO thereafter), 82%. Also, in the experiment with SMNΔ7 mice [1] (low dose), the “correction of impaired body weight increase” value is on record as “only mildly corrected”. In addition, the “fiber size in extensor digitorum longus (EDL) muscles relative to vehicle-treated SMNΔ7 mice” value in the experiment on SMNΔ7 mice [2] was “dose-dependently and significantly increased”. For the same compound, in the experiment with SMNΔ7 mice [2], the “number of motor axons relative to vehicle-treated SMNΔ7 mice” value was “dose-dependently and significantly increased”. Moreover, the “number of vGlut1 inputs relative to vehicle-treated SMNΔ7 mice” value in the experiment with SMNΔ7 mice [2] was “dose-dependently and significantly increased”. In the experiment on SMNΔ7 mice [2] (longissimus muscle), the “percentage of fully innervated NMJs relative to vehicle-treated SMNΔ7 mice” value was “dose-dependently and significantly increased”.
